According to US20080176889A1, “9-anilinoacridine alkylating agents” (priority 2004, published 2008):
Counter-ions that a name gives are not always drawn. Like-named read-outs stand apart in the source and are kept apart here.

How the values were obtained:
[1] = system: human lymphoblastic leukemic cells (CCRF-CEM); experiment: XTT-tetrazolium cytotoxicity assay, CCRF-CEM; type: cell-based
Method: (§1) The effects of the compounds on cell growth were determined in all human tumor cells (i.e. T-cell acute lymphocytic leukemia CCRF-CEM), in a 72 h incubation, by XTT-tetrazolium assay, as described by Scudiero et al., Cancer Res. 1988, 48, 4827-4833. After the addition of phenazine methosulfate-XTT solution at 37° C. for 6 h, absorbance at 450 and 630 nm was detected on a microplate reader (EL 340; Bio-Tek Instruments Inc., Winooski, Vt.). Six to seven concentrations of each compound were used. The IC50 and dose-effect relationships of the compounds for antitumor activity were calculated by a median-effect plot (see, e.g., Chou et al. Adv. Enzyme Regul. 1984, 22, 27-55) using a computer program on an IBM-PC workstation (see, e.g., Chou et al. Dose-Effect Analysis with Microcomputers: Quantitation of ED50, LD50, Synergism, Antagonism, Low-Dose Risk, Receptor-Ligands Binding and Enzyme Kinetics; Biosoft: Cambridge, U.K., 1987).

[2] = system: CCRF-CEM/VBL; experiment: XTT cytotoxicity assay, vinblastine-resistant subline; type: cell-based, human; conditions: for IC50: Homo sapiens, CCRF-CEM, XTT, 72 hours incubation, read-out: IC50 CCRF-CEM/VBL; for folds of resistance CCRF-CEM/VBL vs CCRF-CEM parent cells: number in bracket, ratio of IC50's
Method: as §1
(§2) Data summarizing the growth inhibition of human lymphoblastic leukemic cells (CCRF-CEM) and its drug-resistant sublines (resistant to vinblastine and taxol, CCRF-CEM/VBL and CCRF-CEM/taxol, respectively) by compound 37 is shown in Table 4.

[3] = system: CCRF-CEM/Taxol; experiment: XTT cytotoxicity assay, taxol-resistant subline; type: cell-based, human; conditions: for IC50: Homo sapiens, CCRF-CEM, XTT, 72 hours incubation, read-out: IC50 CCRF-CEM/Taxol; for folds of resistance CCRF-CEM/Taxol vs CCRF-CEM parent cells: number in bracket, ratio of IC50's
Method: as §1, §2

[4] = system: A549; experiment: SRB cytotoxicity assay, solid tumor cells A549; type: cell-based, human; conditions: for IC50: Homo sapiens, A549, SRB
[5] = system: HCT-116; experiment: SRB cytotoxicity assay, solid tumor cells HCT-116; type: cell-based; conditions: Homo sapiens, HCT-116; SRB, 72 hours incubation; read-out: IC50 HCT-116
[6] = system: Topo II; experiment: Topo II-mediated relaxation of pRYG-DNA; type: biochemical
[7] = Homo sapiens, Table 4, XTT, 72 hours incubation, read-out: IC50 CCRF-CEM
[8] = 72 hours incubation, read-out: IC50 A549
[9] = incubation for 3 hours, washed, then incubated for a total of 72 hours (footnote b), read-out: IC50 A549 after washing
[10] = Table 1, Type 1 compounds, 72 h incubation, XTT
[11] = Table 2, Type 2 compounds, 72 h incubation, XTT

## Cc1cccc2c(Nc3ccc(OCCN(CCCl)CCCl)cc3)c3cccc(C(=O)NCCN(C)C)c3nc12 (as salt: salt) [Compound 44, 9-(4-{2-[Bis(2-chloroethyl)amino]ethoxy}phenylamino)-5-methylacridin-4-carboxylic acid (2-dimethylaminoethyl)amide]
other
  melting point: 185 to 186 °C

## Nc1cc(CO)cc(Nc2c3ccccc3nc3ccccc23)c1 [AHMA, 3-(9-acridinylamino)-5-hydroxymethylaniline]
[1]; Homo sapiens, Table 1, Type 1 compounds, 72 h incubation, XTT, read-out: IC50
  IC50: 753 nM
[1]; [7]
  IC50: 753 ± 378 nM
[2]
  IC50: 1600 nM
  folds of resistance CCRF-CEM/VBL vs CCRF-CEM parent cells: 2.1 ×
[3]
  IC50: 600 ± 74 nM
  folds of resistance CCRF-CEM/Taxol vs CCRF-CEM parent cells: 0.8 ×
[4]; [8]
  IC50: 47 nM
[4]; [9]
  IC50: 550 nM
[4]; similar conditions, drug washed away
  reduction of potency when drug washed away: about 12 fold

## ClCCN(CCCl)CCOc1cccc(Nc2c3ccccc3nc3ccccc23)c1 [Compound 38, Acridin-9-yl-(3-{2-[bis(2-chloroethyl)amino]ethoxy}phenyl)amine]
[1]; Homo sapiens, 72 h
  IC50: 95 nM

## ClCCN(CCCl)CCCCOc1cccc(Nc2c3ccccc3nc3ccccc23)c1 [Compound 39, Acridin-9-yl-(3-{4-[bis(2-chloroethyl)amino]butoxy}phenyl)amine]
[1]; Homo sapiens, 72 h
  IC50: 456 nM

## ClCCN(CCCl)CCOc1ccc(Nc2c3ccccc3nc3ccccc23)cc1 [Compound 40, Acridin-9-yl-(4-{2-[bis(2-chloroethyl)amino]ethoxy}phenyl)amine]
[1]; Homo sapiens, 72 h
  IC50: 20 nM

## ClCCN(CCCl)CCCCOc1ccc(Nc2c3ccccc3nc3ccccc23)cc1 [Compound 41, Acridin-9-yl-(4-{4-[bis(2-chloroethyl)amino]buoxy}phenyl)amine]
[1]; Homo sapiens, 72 h
  IC50: 61 nM

## Cc1cccc2c(Nc3cccc(OCCN(CCCl)CCCl)c3)c3cccc(C(=O)NCCN(C)C)c3nc12 [Compound 42, 9-(3-{2-[Bis(2-chloroethyl)amino]ethoxy}phenylamino)-5-methylacridin-4-carboxylic acid (2-dimethylaminoethyl)amide]
[1]; [10]
  IC50: 3 nM

## Cc1cccc2c(Nc3cccc(OCCCCN(CCCl)CCCl)c3)c3cccc(C(=O)NCCN(C)C)c3nc12 [Compound 43, 9-(3-{4-[Bis(2-chloroethyl)amino]butoxy}phenylamino)-5-methylacridin-4-carboxylic acid (2-dimethylaminoethyl)amide]
[1]; [10]
  IC50: 23.5 nM

## Cc1cccc2c(Nc3ccc(OCCN(CCCl)CCCl)cc3)c3cccc(C(=O)NCCN(C)C)c3nc12 [Compound 44, 9-(4-{2-[Bis(2-chloroethyl)amino]ethoxy}phenylamino)-5-methylacridin-4-carboxylic acid (2-dimethylaminoethyl)amide]
[1]; [10]
  IC50: 773 nM

## Cc1cccc2c(Nc3ccc(OCCCCN(CCCl)CCCl)cc3)c3cccc(C(=O)NCCN(C)C)c3nc12 [Compound 45, 9-(4-{4-[Bis(2-chloroethyl)amino]butoxy}phenylamino)-5-methylacridin-4-carboxylic acid (2-dimethylaminoethyl)amide]
[1]; [10]
  IC50: 23 nM

## ClCCN(CCCl)Cc1cccc(Nc2c3ccccc3nc3ccccc23)c1 [Compound 46, Acridin-9-yl-(3-{[bis-(2-chloroethyl)amino]methyl}phenyl)amine]
[1]; [10]
  IC50: 7.4 nM

## ClCCN(CCCl)Cc1ccc(Nc2c3ccccc3nc3ccccc23)cc1 [Compound 47, Acridin-9-yl-(4-{[bis(2-chloroethyl)amino]methyl}phenyl)amine]
[1]; [10]
  IC50: 30 nM

## Cc1cccc2c(Nc3cccc(CN(CCCl)CCCl)c3)c3cccc(C(=O)NCCN(C)C)c3nc12 [Compound 48, 9-(3-{[Bis(2-chloroethyl)amino]methyl}phenylamino)-5-methylacridine-4-carboxylic acid (2-dimethylaminoethyl)amide]
[1]; [10]
  IC50: 1.7 nM

## Cc1cccc2c(Nc3ccc(CN(CCCl)CCCl)cc3)c3cccc(C(=O)NCCN(C)C)c3nc12 [Compound 49, 9-(4-{[Bis(2-chloroethyl)amino]methyl}phenylamino)-5-methylacridin-4-carboxylic acid (2-dimethylaminoethyl)amide]
[1]; [10]
  IC50: 8.1 nM

## Nc1cc(CO)cc(Nc2c3ccccc3nc3c(OCCN(CCCl)CCCl)cccc23)c1 [Compound 50, [3-Amino-5-(4-{2-[bis(2-chloroethyl)amino]ethoxy}acridin-9-ylamino)phenyl]methanol]
[1]; [11]
  IC50: 7.2 nM

## CCOC(=O)Nc1cc(CO)cc(Nc2c3ccccc3nc3c(OCCN(CCCl)CCCl)cccc23)c1 [Compound 51]
[1]; [11]
  IC50: 26 nM

## Nc1cc(CO)cc(Nc2c3ccccc3nc3c(OCCCCN(CCCl)CCCl)cccc23)c1 [Compound 52, [3-Amino-5-(4-{4-[bis-(2-chloroethyl)amino]butoxy}acridin-9-ylamino)phenyl]-methanol]
[1]; [11]
  IC50: 4.6 nM

## OCc1cc(O)cc(Nc2c3ccccc3nc3c(OCCN(CCCl)CCCl)cccc23)c1 [Compound 53, 3-(4-{2-[Bis-(2-chloroethyl)amino]ethoxy}acridin-9-ylamino)-5-hydroxymethylphenol]
[1]; [11]
  IC50: 6.1 nM

## ClCCN(CCCl)CCOc1cccc(Nc2c3ccccc3nc3c(OCCN(CCCl)CCCl)cccc23)c1 [Compound 54, (4-{2-[Bis-(2-chloroethyl)amino]ethoxy}acridin-9-yl)-(3-{2-[bis(2-chloroethyl)-amino]ethoxy}phenyl)amine]
[1]; Homo sapiens, 72 h
  IC50: 18.6 nM

## ClCCN(CCCl)CCCCOc1cccc(Nc2c3ccccc3nc3c(OCCN(CCCl)CCCl)cccc23)c1 [Compound 55]
[1]; Homo sapiens, 72 h
  IC50: 6 nM

## ClCCN(CCCl)CCOc1ccc(Nc2c3ccccc3nc3c(OCCN(CCCl)CCCl)cccc23)cc1 [Compound 56, (4-[2-[Bis(2-chloroethyl)amino]ethoxy]acridin-9-yl)-(4-{2-[bis(2-chloroethyl)amino]-ethoxy}phenyl)amine]
[1]; Homo sapiens, 72 h
  IC50: 17.3 nM

## ClCCN(CCCl)CCCCOc1cccc(Nc2c3ccccc3nc3c(OCCN(CCCl)CCCl)cccc23)c1 [Compound 58]
[1]; Table 3, Type 3 compounds, 72 h incubation, XTT, read-out: IC50
  IC50: 25 nM

## CC(=O)O[C@H]1C(=O)[C@@]2(C)[C@H]([C@H](OC(=O)c3ccccc3)[C@]3(O)C[C@H](OC(=O)[C@H](O)[C@@H](NC(=O)c4ccccc4)c4ccccc4)C(C)=C1C3(C)C)[C@]1(OC(C)=O)CO[C@@H]1C[C@@H]2O [Taxol]
[1]; [7]
  IC50: 1.5 ± 0.5 nM
[2]
  IC50: 1620 nM
  folds of resistance CCRF-CEM/VBL vs CCRF-CEM parent cells: 1080 ×
[3]
  IC50: 143 ± 7 nM
  folds of resistance CCRF-CEM/Taxol vs CCRF-CEM parent cells: 95.3 ×
[4]; [8]
  IC50: 1.9 nM
[4]; [9]
  IC50: 390 nM
[5]
  IC50: 1.3 nM

## COc1cc([C@@H]2c3cc4c(cc3[C@@H](O[C@@H]3O[C@@H]5CO[C@@H](C)O[C@H]5[C@H](O)[C@H]3O)[C@H]3COC(=O)[C@H]23)OCO4)cc(OC)c1O [VP-16]
[6]
  Topo II-mediated relaxation of pRYG-DNA: inhibited DNA relaxation

## CC[C@]1(O)C[C@@H]2CN(CCc3c([nH]c4ccccc34)[C@@](C(=O)OC)(c3cc4c(cc3OC)N(C)[C@H]3[C@@](O)(C(=O)OC)[C@H](OC(C)=O)[C@]5(CC)C=CCN6CC[C@]43[C@@H]65)C2)C1 [Vinblastine]
[1]; [7]
  IC50: 1.2 nM
[2]
  IC50: 540 nM
  folds of resistance CCRF-CEM/VBL vs CCRF-CEM parent cells: 450 ×
[3]
  IC50: 29 nM
  folds of resistance CCRF-CEM/Taxol vs CCRF-CEM parent cells: 24.2 ×
[4]; [8]
  IC50: 8.1 nM
[4]; [9]
  IC50: 95 nM
[5]
  IC50: 1.4 nM

## AHMA-tert-butylcarbamate
[6]
  Topo II-mediated relaxation of pRYG-DNA: inhibited DNA relaxation
